The source of these data is PubChem BioAssay AID1745844 (Carcinogenic Potency Database (CPDB), 2022).

Active and inactive are the calls of the source. No rule for the calls is given here.

The series relates to rodent lifetime carcinogenesis bioassay, tumor incidence TD50. As to the kind of experiment: carcinogenic potency in animals, long-term in vivo studies, CPDB compilation (AID 1745844).

What is called TD50 is the dose at which the toxic effect under study appears in half of the subjects. As for `O=C1NS(=O)(=O)c2ccccc21`, the TD50 by setting is: (monkey, strain Rhesus [Macaca mulatta], both sexes, in feed, site: any site (literature study), lesion: malignant tumor, dosed 1221 weeks, study length 1221 weeks) 610 mg/kg/day; (monkey, strain Rhesus [Macaca mulatta], both sexes, in feed, site: thyroid gland, lesion: lymphoma, dosed 1221 weeks, study length 1221 weeks) 43.3 mg/kg/day; (mouse, strain CD-1 HaM/ICR, females, in feed, site: any site (literature study), lesion: several types, types named in the paper, dosed 104 weeks, study length 104 weeks) 26100 mg/kg/day (inactive); (mouse, strain CD-1 HaM/ICR, males, in feed, site: any site (literature study), lesion: several types, types named in the paper, dosed 104 weeks, study length 104 weeks) 881 mg/kg/day (inactive); (mouse, strain CD-1 HaM/ICR, males, in feed, site: lung, lesion: one or several types, types not named, dosed 104 weeks, study length 104 weeks) 1360 mg/kg/day (inactive); (mouse, strain Swiss albino, females, in feed, site: lung, lesion: one or several types, types not named, dosed 76 weeks, study length 76 weeks) 56300 mg/kg/day (inactive). The TD50 was 1110 mg/kg/day (rat, strain ACI, males, in feed, site: urinary bladder, lesion: papilloma, dosed 52 weeks, study length 52 weeks); 3710 mg/kg/day (rat, strain ACI, males, in feed, site: urinary bladder, lesion: transitional-cell carcinoma, dosed 52 weeks, study length 52 weeks); 155000 mg/kg/day (rat, strain Charles River CD (Sprague-Dawley), females, in feed, site: liver, lesion: biliary cystadenoma, dosed 142 weeks, study length 142 weeks); 78200 mg/kg/day (inactive) (rat, strain Charles River CD (Sprague-Dawley), females, in feed, site: liver, lesion: cholangiocarcinoma, dosed 113 weeks, study length 113 weeks); 155000 mg/kg/day (rat, strain Charles River CD (Sprague-Dawley), females, in feed, site: liver, lesion: neoplastic nodule, dosed 142 weeks, study length 142 weeks); 98400 mg/kg/day (inactive) (rat, strain Charles River CD (Sprague-Dawley), females, in feed, site: liver, lesion: nodular hyperplasia, dosed 113 weeks, study length 113 weeks). Moreover, the TD50 (rat, strain Charles River CD (Sprague-Dawley), males, in feed, site: liver, lesion: biliary cystadenoma, dosed 142 weeks, study length 142 weeks) amounted to 60000 mg/kg/day; the TD50 (rat, strain Charles River CD (Sprague-Dawley), males, in feed, site: parathyroid, lesion: adenoma, dosed 142 weeks, study length 142 weeks) was 23200 mg/kg/day; the TD50 (rat, strain Charles River CD (Sprague-Dawley), males, in feed, site: urinary bladder, lesion: transitional-cell carcinoma, dosed 142 weeks, study length 142 weeks) was 31100 mg/kg/day; the TD50 (rat, strain Charles River CD (Sprague-Dawley), males, in feed, site: urinary bladder, lesion: transitional-cell papilloma, dosed 142 weeks, study length 142 weeks) is 30800 mg/kg/day; the TD50 (rat, strain Fischer 344, males, in feed, site: urinary bladder, lesion: papilloma, dosed 104 weeks, study length 104 weeks) was 54100 mg/kg/day; the TD50 (rat, strain Fischer, males, in feed, site: testis, lesion: interstitial-cell tumor, dosed 77 weeks, study length 98 weeks) came out at 613 mg/kg/day. For the same compound, the TD50 (rat, strain Sprague-Dawley, both sexes, in feed, site: any site (literature study), lesion: malignant tumor, dosed 130 weeks, study length 130 weeks) was 4100 mg/kg/day (inactive) and the TD50 (rat, strain Wistar, both sexes, in feed, site: urinary bladder, lesion: one or several types, types not named, dosed 104 weeks, study length 104 weeks) was 125000 mg/kg/day. Further, the carcinogen call was “negative (inactive)” (mouse, strain CD-1 HaM/ICR, females, in feed, site: liver, lesion: one or several types, types not named, dosed 104 weeks, study length 104 weeks); “negative (inactive)” (mouse, strain CD-1 HaM/ICR, females, in feed, site: lung, lesion: one or several types, types not named, dosed 104 weeks, study length 104 weeks); “negative (inactive)” (mouse, strain CD-1 HaM/ICR, males, in feed, site: liver, lesion: hepatoma, dosed 104 weeks, study length 104 weeks); “negative (inactive)” (mouse, strain Swiss albino, females, in feed, site: liver, lesion: hepatoma, dosed 76 weeks, study length 76 weeks); “negative (inactive)” (mouse, strain Swiss, females, in feed, site: urinary bladder, lesion: anaplastic carcinoma, dosed 91 weeks, study length 91 weeks); “negative (inactive)” (mouse, strain Swiss, males, in feed, site: urinary bladder, lesion: transitional-cell carcinoma, dosed 91 weeks, study length 91 weeks). The carcinogen call was “negative (inactive)” (rat, strain Analbuminaemic (Sprague-Dawley derived), males, in feed, site: urinary bladder, lesion: carcinoma, dosed 80 weeks, study length 80 weeks); “negative (inactive)” (rat, strain Charles River CD (Sprague-Dawley), males, in feed, site: any site (literature study), lesion: several types, types named in the paper, dosed 104 weeks, study length 104 weeks); “negative (inactive)” (rat, strain Charles River CD (Sprague-Dawley), males, in feed, site: liver, lesion: hepatocellular carcinoma, dosed 113 weeks, study length 113 weeks); “negative (inactive)” (rat, strain Fischer 344, males, in feed, site: forestomach, lesion: papilloma, dosed 72 weeks, study length 73 weeks); “negative (inactive)” (rat, strain Fischer 344, males, in feed, site: urinary bladder, lesion: carcinoma, dosed 72 weeks, study length 73 weeks); “negative (inactive)” (rat, strain Fischer 344, males, in feed, site: urinary bladder, lesion: one or several types, types not named, dosed 52 weeks, study length 52 weeks). In addition, the carcinogen call is, setting by setting: (rat, strain Fischer 344, males, in feed, site: urinary bladder, lesion: one or several types, types not named, dosed 72 weeks, study length 72 weeks) “negative (inactive)”; (rat, strain Fischer 344, males, in feed, site: urinary bladder, lesion: one or several types, types not named, dosed 102 weeks, study length 104 weeks) “negative (inactive)”; (rat, strain Fischer 344, males, in feed, site: urinary bladder, lesion: one or several types, types not named, dosed 104 weeks, study length 104 weeks) “negative (inactive)”; (rat, strain Fischer, males, in feed, site: urinary bladder, lesion: several types, types named in the paper, dosed 100 weeks, study length 104 weeks) “negative (inactive)”; (rat, strain Sprague-Dawley, both sexes, in feed, site: urinary bladder, lesion: one or several types, types not named, dosed 130 weeks, study length 130 weeks) “negative (inactive)”; (rat, strain Sprague-Dawley, males, in feed, site: urinary bladder, lesion: carcinoma, dosed 80 weeks, study length 80 weeks) “negative (inactive)”. For the same compound, the carcinogen call (rat, strain Sprague-Dawley, males, in feed, site: urinary bladder, lesion: one or several types, types not named, dosed 52 weeks, study length 52 weeks) was “negative (inactive)” and the carcinogen call (rat, strain Wistar, males, in feed, site: urinary bladder, lesion: one or several types, types not named, dosed 52 weeks, study length 52 weeks) was “negative (inactive)”.
Turning to `CC1(C)COC1=O`, the TD50 by setting is: (mouse, strain B6C3F1, females, by gavage, site: any site (literature study), lesion: several types, types named in the paper, dosed 102 weeks, study length 103 weeks) 179 mg/kg/day (inactive); (mouse, strain B6C3F1, females, by gavage, site: lung, lesion: alveolar/bronchiolar adenoma + alveolar/bronchiolar carcinoma, dosed 102 weeks, study length 103 weeks) 482 mg/kg/day; (mouse, strain B6C3F1, males, by gavage, site: lung, lesion: alveolar/bronchiolar adenoma + alveolar/bronchiolar carcinoma, dosed 102 weeks, study length 103 weeks) 435 mg/kg/day; (rat, strain Fischer 344, females, by gavage, site: any site (literature study), lesion: several types, types named in the paper, dosed 103 weeks, study length 105 weeks) 200 mg/kg/day; (rat, strain Fischer 344, females, by gavage, site: stomach, lesion: squamous-cell carcinoma + squamous-cell papilloma, dosed 103 weeks, study length 105 weeks) 333 mg/kg/day; (rat, strain Fischer 344, males, by gavage, site: any site (literature study), lesion: several types, types named in the paper, dosed 103 weeks, study length 105 weeks) 181 mg/kg/day. Also, the TD50 was 850 mg/kg/day (rat, strain Fischer 344, males, by gavage, site: liver, lesion: hepatocellular adenoma + hepatocellular carcinoma + neoplastic nodule, dosed 103 weeks, study length 105 weeks); 154 mg/kg/day (rat, strain Fischer 344, males, by gavage, site: stomach, lesion: squamous-cell carcinoma + squamous-cell papilloma, dosed 103 weeks, study length 105 weeks); 532 mg/kg/day (rat, strain Fischer 344, males, by gavage, site: stomach, lesion: squamous-cell carcinoma, dosed 103 weeks, study length 105 weeks). Also, for the setting “mouse, strain B6C3F1, males, by gavage, site: any site (literature study), lesion: several types, types named in the paper, dosed 102 weeks, study length 103 weeks”, the carcinogen call is “negative (inactive)”.
For `O=NN1CCSCC1`, the TD50 reads like this: (rat, strain MRC, females, in drinking water, site: any site (literature study), lesion: several types, types named in the paper, dosed 38 weeks, study length 105 weeks) 7.38 mg/kg/day; (rat, strain MRC, females, in drinking water, site: esophagus, lesion: several types, types named in the paper, dosed 38 weeks, study length 105 weeks) 7.69 mg/kg/day; (rat, strain MRC, females, in drinking water, site: tongue, lesion: squamous-cell carcinoma, dosed 38 weeks, study length 105 weeks) 22 mg/kg/day; (rat, strain MRC, males, in drinking water, site: any site (literature study), lesion: several types, types named in the paper, dosed 38 weeks, study length 95 weeks) 2.29 mg/kg/day; (rat, strain MRC, males, in drinking water, site: esophagus, lesion: several types, types named in the paper, dosed 38 weeks, study length 95 weeks) 4.15 mg/kg/day.
For `Clc1cccc(-c2cccc(Cl)c2)c1`, where the note is “rat, strain Wistar, males, in feed, site: liver, lesion: hepatocellular carcinoma, dosed 116 weeks, study length 116 weeks”, the TD50 was 157 mg/kg/day.
Consider `CN(N=O)c1ccc(F)cc1`, for which the TD50 by setting is: (rat, strain Fischer 344, males, in drinking water, site: esophagus, lesion: several types, types named in the paper, dosed 50 weeks, study length 114 weeks) 0.255 mg/kg/day; (rat, strain Fischer 344, males, in drinking water, site: liver, lesion: hyperplastic nodule, dosed 50 weeks, study length 114 weeks) 10.3 mg/kg/day.
For `C=CCOCC1CO1` (stereo not drawn), the TD50 (mouse, strain B6C3F1, females, inhaled, site: Harderian gland, lesion: adenoma, dosed 102 weeks, study length 105 weeks) was 121 mg/kg/day; the TD50 (mouse, strain B6C3F1, females, inhaled, site: lung, lesion: alveolar/bronchiolar adenoma + alveolar/bronchiolar carcinoma, dosed 102 weeks, study length 105 weeks) turned out to be 123 mg/kg/day; the TD50 (mouse, strain B6C3F1, females, inhaled, site: nasal cavity, respiratory epithelium, lesion: adenoma, dosed 102 weeks, study length 105 weeks) came to 614 mg/kg/day; the TD50 (mouse, strain B6C3F1, males, inhaled, site: lung, lesion: alveolar/bronchiolar adenoma + alveolar/bronchiolar carcinoma, dosed 102 weeks, study length 105 weeks) was found to be 727 mg/kg/day; the TD50 (mouse, strain B6C3F1, males, inhaled, site: nasal cavity, respiratory epithelium, lesion: adenoma, dosed 102 weeks, study length 105 weeks) was 182 mg/kg/day; the TD50 (rat, strain Osborne-Mendel, females, inhaled, site: any site (literature study), lesion: several types, types named in the paper, dosed 103 weeks, study length 106 weeks) was 25.9 mg/kg/day (inactive). Further, the TD50 was 1.01 mg/kg/day (rat, strain Osborne-Mendel, males, inhaled, site: any site (literature study), lesion: several types, types named in the paper, dosed 103 weeks, study length 106 weeks) and 14.9 mg/kg/day (rat, strain Osborne-Mendel, males, inhaled, site: nasal cavity, olfactory epithelium + nasal cavity, respiratory epithelium, lesion: adenocarcinoma + papillary adenoma + squamous-cell carcinoma, dosed 103 weeks, study length 106 weeks).
For the compound `FC(F)(F)CCl`, the TD50 by setting is: (rat, strain Alpk:APfSD, females, by gavage, site: uterus, lesion: adenocarcinoma, dosed 52 weeks, study length 125 weeks) 160 mg/kg/day; (rat, strain Alpk:APfSD, males, by gavage, site: testis, lesion: interstitial-cell tumor, dosed 52 weeks, study length 125 weeks) 60 mg/kg/day.
